# Measured values reported in US8796324B2, “Substituted 2-acetamido-5-aryl-1,2,4-triazolones and use thereof” (Bayer Intellectual Property GmbH, priority 2009, dated 2014).
# Counter-ions that a name gives are not always drawn.
# Legend:
# human V1a receptor = target: T1, human V1a receptor (Homo sapiens, UniProt P37288); assay: Cellular in vitro assay for determining the vasopressin receptor activity (aequorin luminescence); format: cell-based; details: CHO cell line transfected with the human V1a receptor; agonist [Arg8]-vasopressin; read-out: IC50 hV1a
# T1 construct: expressed in transfected cells; host or cells: CHO K1 (constitutively expressing modified aequorin)
# T1 sequence (P37288 whole entry): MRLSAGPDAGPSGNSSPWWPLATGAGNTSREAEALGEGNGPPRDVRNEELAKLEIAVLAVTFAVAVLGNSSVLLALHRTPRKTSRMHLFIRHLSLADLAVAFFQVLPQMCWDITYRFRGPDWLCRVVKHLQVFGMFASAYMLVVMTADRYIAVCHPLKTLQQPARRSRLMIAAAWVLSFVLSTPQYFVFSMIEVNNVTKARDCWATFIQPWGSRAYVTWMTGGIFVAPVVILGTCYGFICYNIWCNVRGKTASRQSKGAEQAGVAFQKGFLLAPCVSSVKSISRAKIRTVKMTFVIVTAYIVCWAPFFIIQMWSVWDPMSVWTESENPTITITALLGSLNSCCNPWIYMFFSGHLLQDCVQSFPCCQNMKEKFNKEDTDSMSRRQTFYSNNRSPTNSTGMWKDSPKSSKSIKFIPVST
# Source text: (§1) B-1. Cellular In Vitro Assay for Determining the Vasopressin Receptor Activity
# (§2) The identification of agonists and antagonists of the V1a and V2 vasopressin receptors from humans and rats and also the quantification of the activity of the substances described here took place using recombinant cell lines. These cells derive originally from a hamster ovary epithelial cell (Chinese Hamster Ovary, CHO K1, ATCC: American Type Culture Collection, Manassas, Va. 20108, USA). The test cell lines constitutively express a modified form of the calcium-sensitive photoprotein aequorin, which, after reconstitution with the cofactor coelenterazine, emits light when there are increases in the free calcium concentration (Rizzuto R., Simpson A. W., Brini M., Pozzan T.; Nature 358 (1992) 325-327). In addition, the cells are stably transfected with the human or rat V1a or V2 receptors. In the case of the Gs-coupling V2 receptors, the cells are stably transfected with a further gene, which codes for the promiscuous Gα16 protein (Amatruda T. T., Steele D. A., Slepak V. Z., Simon M. I., Proc. Nat. Acad. Sci. USA 88 (1991), 5587-5591), either independently or as a fusion gene. The resulting vasopressin receptor test cells react to stimulation of the recombinantly expressed vasopressin receptors by intracellular release of calcium ions, which can be quantified by the resulting aequorin luminescence using a suitable luminometer (Milligan G., Marshall F., Rees S., Trends in Pharmaco. Sci. 17 (1996) 235-237).
# (§3) On the day before the assay, the cells are plated out in culture medium (DMEM, 10% FCS, 2 mM glutamine, 10 mM HEPES) in 384-well microtiter plates and kept in a cell incubator (96% humidity, 5% v/v carbon dioxide, 37° C.). On the day of the assay, the culture medium is replaced by a Tyrode solution (140 mM sodium chloride, 5 mM potassium chloride, 1 mM magnesium chloride, 2 mM calcium chloride, 20 mM glucose, 20 mM HEPES), which additionally contains the cofactor coelenterazine (50 μM), and the microtiter plate is then incubated for a further 3-4 hours. The test substances in various concentrations are placed for 10 to 20 minutes in the wells of the microtiter plate before the agonist [Arg8]-vasopressin is added, and the resulting light signal is measured immediately in the luminometer. The IC50 values are calculated using the GraphPad PRISM computer program (Version 3.02).
# (§4) The table below lists representative IC50 values for the compounds of the invention on the cell line transfected with the human V1a or V2 receptor: […]
# human V2 receptor = target: T2, human V2 receptor (Homo sapiens, UniProt P30518); assay: as above; format: cell-based; details: CHO cell line transfected with the human V2 receptor (and Gα16); agonist [Arg8]-vasopressin; read-out: IC50 hV2
# T2 construct: expressed in transfected cells; host or cells: CHO K1 (constitutively expressing modified aequorin; co-transfected with promiscuous G-alpha-16)
# T2 sequence (P30518 whole entry): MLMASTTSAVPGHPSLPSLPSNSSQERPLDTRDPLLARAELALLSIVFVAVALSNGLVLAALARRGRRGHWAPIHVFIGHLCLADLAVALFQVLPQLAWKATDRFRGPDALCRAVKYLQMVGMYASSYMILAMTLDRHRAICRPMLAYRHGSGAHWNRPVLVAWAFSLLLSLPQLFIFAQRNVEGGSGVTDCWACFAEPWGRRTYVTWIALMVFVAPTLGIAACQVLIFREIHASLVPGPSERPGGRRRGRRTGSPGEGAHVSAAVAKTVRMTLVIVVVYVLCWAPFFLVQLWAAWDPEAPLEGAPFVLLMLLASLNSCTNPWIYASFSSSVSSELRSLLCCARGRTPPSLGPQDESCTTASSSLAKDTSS
# Source text: as §1, §2, §3, §4
IC50 (human V1a receptor) [nM],IC50 (human V2 receptor) [nM],Compound
3.5,7.6,"COC(=O)NCC(NC(=O)Cn1nc(-c2ccc(Cl)cc2)n(CCC(F)(F)F)c1=O)c1cccc(Cl)c1Cl (single isomer, unassigned) [Example 115, Methyl [2-({[3-(4-chlorophenyl)-5-oxo-4-(3,3,3-trifluoropropyl)-4,5-dihydro-1H-1,2,4-triazol-1-yl]acetyl}amino)-2-(2,3-dichlorophenyl)ethyl]carbamate]"
0.9,1.4,"NC(=O)NCC(NC(=O)Cn1nc(-c2ccc(Cl)cc2)n(CCC(F)(F)F)c1=O)c1cccc(Cl)c1Cl (single isomer, unassigned) [Example 121, N-[2-(Carbamoylamino)-1-(2,3-dichlorophenyl)ethyl]-2-[3-(4-chlorophenyl)-5-oxo-4-(3,3,3-trifluoropropyl)-4,5-dihydro-1H-1,2,4-triazol-1-yl]acetamide]"
1.8,1.8,"CS(=O)(=O)NCC(NC(=O)Cn1nc(-c2ccc(Cl)cc2)n(C[C@H](O)C(F)(F)F)c1=O)c1ccccc1Cl (single isomer, unassigned) [Example 126]"
3.9,24,"CS(=O)(=O)CC(NC(=O)Cn1nc(-c2ccc(Cl)cc2)n(C[C@H](O)C(F)(F)F)c1=O)c1ccccc1C(F)(F)F (single isomer, unassigned) [Example 136]"
36,4.8,"CN(C)S(=O)(=O)CC(NC(=O)Cn1nc(-c2ccc(Cl)cc2)n(C[C@H](O)C(F)(F)F)c1=O)c1cccc(C(F)(F)F)c1 (single isomer, unassigned) [Example 141]"
1.4,13.9,"NC(=O)OCC(NC(=O)Cn1nc(-c2ccc(Cl)cc2)n(CCC(F)(F)F)c1=O)c1ccccc1C(F)(F)F (single isomer, unassigned) [Example 144, 2-({[3-(4-Chlorophenyl)-5-oxo-4-(3,3,3-trifluoropropyl)-4,5-dihydro-1H-1,2,4-triazol-1-yl]acetyl}amino)-2-[2-(trifluoromethyl)phenyl]ethyl carbamate]"
2,15,"O=C(Cn1nc(-c2ccc(Cl)cc2)n(C[C@H](O)C(F)(F)F)c1=O)NC(CN1CCOC1=O)c1cccc(C(F)(F)F)c1 (single isomer, unassigned) [Example 149]"
2.2,7.1,"O=C(Cn1nc(-c2ccc(Cl)cc2)n(C[C@H](O)C(F)(F)F)c1=O)NC(CN1CCNC1=O)c1cccc(C(F)(F)F)c1 (single isomer, unassigned) [Example 152]"
1.9,10,"CSCC(NC(=O)Cn1nc(-c2ccc(Cl)cc2)n(C[C@H](O)C(F)(F)F)c1=O)c1ccccc1C(F)(F)F (single isomer, unassigned) [Example 156]"
2.3,24.8,"NC(=O)OCC(NC(=O)Cn1nc(-c2ccc(Cl)cc2)n(Cc2ccccc2F)c1=O)c1ccccc1C(F)(F)F (single isomer, unassigned) [Example 191, 2-({[3-(4-Chlorophenyl)-4-(2-fluorobenzyl)-5-oxo-4,5-dihydro-1H-1,2,4-triazol-1-yl]acetyl}amino)-2-[2-(trifluoromethyl)phenyl]ethyl carbamate]"
2.7,4.4,"NC(=O)OCC(NC(=O)Cn1nc(-c2ccc(Cl)cc2)n(C[C@H](O)C(F)(F)F)c1=O)c1cccc(Cl)c1Cl (single isomer, unassigned) [Example 203]"

# The next lines start with the compound.
Compound,IC50 (human V1a receptor) [nM],IC50 (human V2 receptor) [nM]
"NCC(NC(=O)Cn1nc(-c2ccc(Cl)cc2)n(C[C@H](O)C(F)(F)F)c1=O)c1cccc(C(F)(F)F)c1 (mixture of isomers) [Example 10, N-{2-Amino-1-[3-(trifluoromethyl)phenyl]ethyl}-2-{3-(4-chlorophenyl)-5-oxo-4-[(2S)-3,3,3-trifluoro-2-hydroxypropyl]-4,5-dihydro-1H-1,2,4-triazol-1-yl}acetamide hydrochloride (diastereomer mixture)]",10.4,6.3
"CC(=O)NCC(NC(=O)Cn1nc(-c2ccc(Cl)cc2)n(C[C@H](O)C(F)(F)F)c1=O)c1cccc(C(F)(F)F)c1 (mixture of isomers) [Example 20, N-{2-(Acetylamino)-1-[3-(trifluoromethyl)phenyl]ethyl}-2-{3-(4-chlorophenyl)-5-oxo-4-[(2S)-3,3,3-trifluoro-2-hydroxypropyl]-4,5-dihydro-1H-1,2,4-triazol-1-yl}acetamide (diastereomer mixture)]",1.5,6.3
"O=C(Cn1nc(-c2ccc(Cl)cc2)n(C[C@H](O)C(F)(F)F)c1=O)NC(c1cccc(C(F)(F)F)c1)C(O)C(F)(F)F (mixture of isomers) [Example 78, 2-{3-(4-Chlorophenyl)-5-oxo-4-[(2S)-3,3,3-trifluoro-2-hydroxypropyl]-4,5-dihydro-1H-1,2,4-triazol-1-yl}-N-{3,3,3-trifluoro-2-hydroxy-1-[3-(trifluoromethyl)phenyl]propyl}acetamide]",21.1,30.4
"COc1cccc(C(CCO)NC(=O)Cn2nc(-c3ccc(Cl)cc3)n(C3CC3)c2=O)c1 (racemic) [Example 89, 2-[3-(4-Chlorophenyl)-4-cyclopropyl-5-oxo-4,5-dihydro-1H-1,2,4-triazol-1-yl]-N-[3-hydroxy-1-(3-methoxyphenyl)propyl]acetamide]",2880,290
"O=C(Cn1nc(-c2ccc(Cl)cc2)n(C2CC2)c1=O)NC(CO)c1cccc(C(F)(F)F)c1 (racemic) [Example 96, 2-[3-(4-Chlorophenyl)-4-cyclopropyl-5-oxo-4,5-dihydro-1H-1,2,4-triazol-1-yl]-N-{2-hydroxy-1-[3-(trifluoromethyl)phenyl]ethyl}acetamide]",71.3,40.2
"NC(=O)OCC(NC(=O)Cn1nc(-c2ccc(Cl)cc2)n(C[C@H](O)C(F)(F)F)c1=O)c1cccc(C(F)(F)F)c1 (single isomer, unassigned) [Example 48]",5.2,4.4
"NC(=O)OCC(NC(=O)Cn1nc(-c2ccc(Cl)cc2)n(C[C@H](O)C(F)(F)F)c1=O)c1ccccc1C(F)(F)F (single isomer, unassigned) [Example 51]",1,8.5
"NC(=O)NCC(NC(=O)Cn1nc(-c2ccc(Cl)cc2)n(C[C@H](O)C(F)(F)F)c1=O)c1cccc(C(F)(F)F)c1 (single isomer, unassigned) [Example 57]",2.9,2.2
"NC(=O)NCC(NC(=O)Cn1nc(-c2ccc(Cl)cc2)n(C[C@H](O)C(F)(F)F)c1=O)c1ccccc1C(F)(F)F (single isomer, unassigned) [Example 60]",0.5,4.5
"NC(=O)NCC(NC(=O)Cn1nc(-c2ccc(Cl)cc2)n(C[C@H](O)C(F)(F)F)c1=O)c1cccc(Cl)c1Cl (single isomer, unassigned) [Example 62]",3.6,1
"NC(=O)OCC(NC(=O)Cn1nc(-c2ccc(Cl)cc2)n(/C=C/C(F)(F)F)c1=O)c1cccc(C(F)(F)F)c1 (single isomer, unassigned) [Example 65, 2-[({3-(4-Chlorophenyl)-5-oxo-4-[(1E)-3,3,3-trifluoroprop-1-en-1-yl]-4,5-dihydro-1H-1,2,4-triazol-1-yl}acetyl)amino]-2-[3-(trifluoromethyl)phenyl]ethyl carbamate]",16.8,16.8
"NC(=O)OCCC(NC(=O)Cn1nc(-c2ccc(Cl)cc2)n(C[C@H](O)C(F)(F)F)c1=O)c1cccc(Cl)c1Cl (single isomer, unassigned) [Example 73]",10.8,1.6
"Cc1ccccc1C(CCO)NC(=O)Cn1nc(-c2ccc(Cl)cc2)n(C[C@H](O)C(F)(F)F)c1=O (single isomer, unassigned) [Example 87]",3.8,5.8
"NC(=O)OCC(NC(=O)Cn1nc(-c2ccc(Cl)cc2)n(CCC(F)(F)F)c1=O)c1cccc(C(F)(F)F)c1 (single isomer, unassigned) [Example 112, 2-({[3-(4-Chlorophenyl)-5-oxo-4-(3,3,3-trifluoropropyl)-4,5-dihydro-1H-1,2,4-triazol-1-yl]acetyl}amino)-2-[3-(trifluoromethyl)phenyl]ethyl carbamate]",2.4,6
